Patent US12448394B2, “Heterocyclic pyrazole derivatives as type III receptor tyrosine kinase inhibitors” (DEVELOPMENT CENTER FOR BIOTECHNOLOGY, priority 2019, dated 2025)

Tests used:
FLT3-D835Y mutant kinase = biological target: T1, FLT3-D835Y mutant kinase (Homo sapiens, UniProt P36888, D835Y); assay: FLT3-D835Y mutant kinase assay (AlphaScreen); assay type: biochemical; settings: read-out: Ranking of IC50 values, FLT3-D835Y
T1 construct: purchased SignalChem
T1 sequence (P36888 27-993 D835Y): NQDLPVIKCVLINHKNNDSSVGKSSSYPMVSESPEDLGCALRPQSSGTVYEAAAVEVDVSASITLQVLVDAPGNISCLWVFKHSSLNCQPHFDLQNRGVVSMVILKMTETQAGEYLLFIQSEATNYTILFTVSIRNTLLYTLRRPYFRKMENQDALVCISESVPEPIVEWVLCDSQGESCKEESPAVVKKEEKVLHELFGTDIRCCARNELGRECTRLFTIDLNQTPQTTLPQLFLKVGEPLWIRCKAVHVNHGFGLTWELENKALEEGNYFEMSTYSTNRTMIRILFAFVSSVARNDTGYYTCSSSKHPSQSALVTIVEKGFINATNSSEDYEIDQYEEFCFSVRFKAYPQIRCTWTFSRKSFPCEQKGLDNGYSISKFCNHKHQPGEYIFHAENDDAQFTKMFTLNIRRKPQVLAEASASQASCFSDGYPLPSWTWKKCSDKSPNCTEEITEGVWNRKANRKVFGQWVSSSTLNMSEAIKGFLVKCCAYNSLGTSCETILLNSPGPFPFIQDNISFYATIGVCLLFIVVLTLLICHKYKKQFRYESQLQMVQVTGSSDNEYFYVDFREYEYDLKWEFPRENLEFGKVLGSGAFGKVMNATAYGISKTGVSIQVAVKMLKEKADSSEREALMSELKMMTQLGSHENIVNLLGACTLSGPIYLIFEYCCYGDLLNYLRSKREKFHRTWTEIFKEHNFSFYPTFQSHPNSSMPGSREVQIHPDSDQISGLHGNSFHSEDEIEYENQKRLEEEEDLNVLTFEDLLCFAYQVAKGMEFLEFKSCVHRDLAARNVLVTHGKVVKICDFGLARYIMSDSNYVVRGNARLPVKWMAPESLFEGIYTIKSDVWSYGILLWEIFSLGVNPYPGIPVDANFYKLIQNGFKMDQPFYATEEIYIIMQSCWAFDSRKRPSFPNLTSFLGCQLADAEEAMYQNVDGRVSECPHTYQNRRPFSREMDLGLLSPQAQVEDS
Summary of the method: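 AlphaScreen readout of biotin-poly(Glu4:Tyr1) phosphorylation by 1 ng recombinant FLT3-D835Y. Conditions were 10 μM ATP, 10 mM MgCl2, MOPS pH 7.0, 30 min at 30 °C, EDTA stop. Compounds were serially diluted in duplicate to derive IC50.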

MET kinase = biological target: T2, MET kinase (Homo sapiens, UniProt P08581); assay: MET kinase assay (AlphaScreen, counter screen); assay type: biochemical; settings: read-out: Ranking of IC50 values, MET
T2 construct: purchased SignalChem
T2 sequence (P08581 25-1390): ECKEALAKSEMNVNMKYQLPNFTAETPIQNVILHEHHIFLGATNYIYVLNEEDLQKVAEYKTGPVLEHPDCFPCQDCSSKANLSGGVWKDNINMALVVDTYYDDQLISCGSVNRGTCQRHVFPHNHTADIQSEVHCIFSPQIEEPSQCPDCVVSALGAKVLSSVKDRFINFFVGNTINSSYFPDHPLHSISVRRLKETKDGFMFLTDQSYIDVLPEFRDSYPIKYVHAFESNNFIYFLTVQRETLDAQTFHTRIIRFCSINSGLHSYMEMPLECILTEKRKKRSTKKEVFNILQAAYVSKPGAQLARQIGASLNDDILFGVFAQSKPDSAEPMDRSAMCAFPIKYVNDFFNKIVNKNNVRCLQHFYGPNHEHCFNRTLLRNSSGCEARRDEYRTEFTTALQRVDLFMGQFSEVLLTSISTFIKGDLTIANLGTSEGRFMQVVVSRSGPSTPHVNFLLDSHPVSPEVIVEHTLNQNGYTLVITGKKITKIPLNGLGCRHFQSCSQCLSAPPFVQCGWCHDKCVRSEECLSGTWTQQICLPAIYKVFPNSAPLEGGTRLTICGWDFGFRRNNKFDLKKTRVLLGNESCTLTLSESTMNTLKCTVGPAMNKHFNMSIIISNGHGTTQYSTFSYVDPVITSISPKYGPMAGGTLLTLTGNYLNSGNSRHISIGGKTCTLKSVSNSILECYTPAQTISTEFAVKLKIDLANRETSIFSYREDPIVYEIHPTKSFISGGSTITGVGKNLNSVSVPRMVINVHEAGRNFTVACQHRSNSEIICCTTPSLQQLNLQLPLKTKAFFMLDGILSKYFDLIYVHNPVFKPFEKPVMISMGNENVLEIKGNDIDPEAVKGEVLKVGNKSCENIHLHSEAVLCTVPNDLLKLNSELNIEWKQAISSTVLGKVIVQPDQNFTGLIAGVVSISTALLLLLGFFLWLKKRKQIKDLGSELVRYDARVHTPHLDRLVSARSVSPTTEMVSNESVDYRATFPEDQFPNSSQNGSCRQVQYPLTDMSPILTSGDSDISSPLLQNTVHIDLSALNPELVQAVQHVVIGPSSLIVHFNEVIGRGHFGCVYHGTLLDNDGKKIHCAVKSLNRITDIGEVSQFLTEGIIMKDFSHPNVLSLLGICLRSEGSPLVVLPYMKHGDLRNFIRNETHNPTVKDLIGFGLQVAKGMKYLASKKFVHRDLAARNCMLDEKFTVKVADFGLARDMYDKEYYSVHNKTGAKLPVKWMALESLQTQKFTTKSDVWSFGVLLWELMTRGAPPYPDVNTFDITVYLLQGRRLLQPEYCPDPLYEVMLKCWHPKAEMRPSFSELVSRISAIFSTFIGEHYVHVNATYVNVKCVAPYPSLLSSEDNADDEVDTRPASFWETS
Description: Because MET kinase belonged to Class VIII RTK family have one transmembrane a chain linked with one extracellular β chain which is different form Class III RTK family with 5 Immunoglobin-like extracellular domains. Standard assay conditions were 1 ng of recombinant MET kinase (SignalChem) with 3 ng Biotin-conjugated Poly-(Glu 4: Tyr 1) (Cisbio) in the assay buffer ([…], 10 mM MOPs, pH 7.0, 0.21 mM EDTA, 0.5% glycerol, 1 mg/mL BSA, 0.01% 2-mercaptoethanol, 0.001% Brij35, 10 mM MgCl2) in a final volume of 25 μL. Reactions were incubated at 30° C. for 45 min and stopped by adding 5 μL of 50 mM EDTA. Analysis of resulting product using an AlphaScreen kit and counted with Enspire Alpha (PerkinElmer). […] The IC50 values of inhibitors were determined after carrying out assays with each compound at serially diluted concentrations in duplication. The results were analyzed using linear regression software (GraphPad Prism 5; GraphPad Software Inc.)

[1] = system: Molm-14 human acute myeloid leukemia cell with FLT3-ITD mutation; assay: Molm-14 cell proliferation assay (CellTiter 96); assay type: cell-based; settings: Homo sapiens; Molm-14 cells, 72 hours treatment, CellTiter96; read-out: anti-proliferation activity Molm-14 (FLT3-ITD), IC50 ranking
Description: (§1) Inhibitions of cell growths by compounds were measured using CellTiter™-96 assay. The cytotoxicities of compounds of the invention were evaluated in cell line panels with different signaling pathway dependencies, including MV4-11 human acute myeloid leukemia cell with FLT3-ITD mutation, Molm-14 human acute myeloid leukemia cell with FLT3-ITD mutation, THP-1 human acute monocytic leukemia cell with NRAS G12D mutation, A375 melanoma cell with BRAF V600E mutation, and HCC827 NSCLC cell with EGFR exon 19 deletion mutation.
The compounds disclosed herein were tested in Molm-14 cell proliferation assay to determine their cellular potencies against FLT3 signal pathway dependent cell growths. Molm-14 cells are human acute myeloid leukemia (AML) cells harboring ligand-independent FLT3-ITD activating mutation, which renders the abnormal proliferation of the AML cells FLT3 signaling pathway dependent. Inhibition of FLT3 kinase activity will result in reduced growths and/or cell deaths. […] Briefly, cells were grown in RPMI 1640 medium supplemented with 10% heat inactivated fetal bovine serum and incubated at 37° C. in 5% CO2 atmosphere. Cells were allowed to expand until reaching saturation, at which point they were sub-cultured or harvested for assay use.
(§2) MV4-11, Molm-14, THP-1, A375, and HCC827 cells were seeded into 96-well plates at 6500, 25000, 5000, 2000 and 8000 cells/well, respectively, and incubated at 37° C., 5% CO2 overnight. Then, these seeded cells were treated with increasing concentrations of the test compounds and incubated for another 72 hours. At the end of the incubation, CellTiter96® AQueous One Solution Reagent (Promega, […]) was added and incubated for the additional 2˜4 hours. Cell viability was determined by measuring absorbance at 490 nm using EMax® microplate reader (Molecular Devices, San Jose, CA, USA).

[2] = system: A375 melanoma cell with BRAF V600E mutation; assay: A375 cell proliferation assay (counter screen); assay type: cell-based, human; settings: Homo sapiens, A-375, A375 cells, 72 hours treatment, CellTiter96, read-out: anti-proliferation activity A375 BRAF V600E, IC50 ranking
Description: as §1
A375 cells are melanoma cells encoding BRFA V600E mutation, which renders the cell growth dependent on BRAF signaling instead of class III RTKs signaling. A375 cells (catalog #CRL-1619) were obtained from the ATCC. Briefly, cells were cultured in DMEM containing 10% FBS and incubated at 37° C. in 5% CO2 atmosphere. Cells were allowed to expand until reaching saturation, at which point they were sub-cultured or harvested for assay use.
as §2

SMILES | IC50 (FLT3-D835Y mutant kinase) [nM] | IC50 (MET kinase) [nM] | IC50 [1] [nM] | IC50 [2] [µM]
CN1CCN(Cc2cccc(-c3cc4c(s3)Cc3c(-c5ccc6cnn(C)c6c5)n[nH]c3-4)c2)CC1 [Compound 14, 3-(1-methyl-1H-indazol-6-yl)-6-(3-((4-methylpiperazin-1-yl)methyl)phenyl)-1,4-dihydrothieno [2′,3′:4,5]cyclopenta[1,2-c] pyrazole] | 1 to 10 | > 1000 | 30 to 100 | 1 to 10
CN1CCN(C(=O)c2ccc(-c3cc4c(s3)Cc3c(-c5ccc6cnn(C)c6c5)n[nH]c3-4)cc2)CC1 [Compound 15, (4-(3-(1-methyl-1H-indazol-6-yl)-1,4-dihydrothieno[2′,3′:4,5]cyclopenta[1,2-c]pyrazol-6-yl)phenyl)(4-methyl-piperazin-1-yl)methanone] | < 1 | > 1000 | < 30 | > 10
C[C@@H]1CN(Cc2ccc(-c3cc4c(s3)Cc3c(-c5ccc6cn[nH]c6c5)n[nH]c3-4)cn2)C[C@H](C)O1 [Compound 16, (2R,6S)-4-((5-(3-(1H-indazol-6-yl)-1,4-dihydro-thieno[2′,3′:4,5]cyclopenta [1,2-c]pyrazol-6-yl)pyridin-2-yl)methyl)-2,6-dimethylmorpholine] | < 1 | > 1000 | < 30 | > 10
Cc1cc(-c2cc3c(s2)Cc2c(-c4ccc5cnn(C)c5c4)n[nH]c2-3)ccn1 [Compound 17, 3-(1-methyl-1H-indazol-6-yl)-6-(2-methylpyridin-4-yl)-1,4-dihydrothieno [2′,3′:4,5]cyclopenta[1,2-c] pyrazole] | 1 to 10 | > 1000 | 30 to 100 | > 10
c1cc(CN2CCOCC2)ncc1-c1cc2c(s1)Cc1c(-c3ccc4cn[nH]c4c3)n[nH]c1-2 [Compound 18, 4-((5-(3-(1H-indazol-6-yl)-1,4-dihydrothieno[2′,3′:4,5]cyclopenta[1,2-c]pyrazol-6-yl)pyridin-2-yl)methyl) morpholine] | 1 to 10 | > 1000 | < 30 | > 10
C[C@@H]1CN(C(=O)c2ccc(-c3cc4c(s3)Cc3c(-c5ccc6cnn(C)c6c5)n[nH]c3-4)cc2)C[C@H](C)O1 [Compound 19, ((2S,6R)-2,6-dimethyl-morpholino)(4-(3-(1-methyl-1H-indazol-6-yl)-1,4-dihydrothieno[2′,3′:4,5]cyclopenta[1,2-c]pyrazol-6-yl)phenyl)methanone] | 1 to 10 | > 1000 | < 30 | > 10
CC(c1ccc(-c2cc3c(s2)Cc2c(-c4ccc5cnn(C)c5c4)n[nH]c2-3)cc1)N1CCOCC1 (centres unmarked) [Compound 20, 4-(1-(4-(3-(1-methyl-1H-indazol-6-yl)-1,4-dihydro-thieno[2′,3′:4,5]cyclopenta [1,2-c]pyrazol-6-yl)phenyl)ethyl)morpholine] | 1 to 10 | > 1000 | 30 to 100 | > 10
Cn1ncc2ccc(-c3n[nH]c4c3Cc3sc(-c5ccc(C(=O)N6CCOCC6)cc5)cc3-4)cc21 [Compound 21, (4-(3-(1-methyl-1H-indazol-6-yl)-1,4-dihydro-thieno[2′,3′:4,5]cyclopenta [1,2-c]pyrazol-6-yl)phenyl) (morpholino)methanone] | < 1 | > 1000 | < 30 | > 10
Cn1ncc2ccc(-c3n[nH]c4c3Cc3sc(-c5ccc(CCN6CCOCC6)cc5)cc3-4)cc21 [Compound 22, 4-(4-(3-(1-methyl-1H-indazol-6-yl)-1,4-dihydro-thieno[2′,3′:4,5]cyclopenta [1,2-c]pyrazol-6-yl)phenethyl)morpholine] | 1 to 10 | > 1000 | 30 to 100 | > 10
Cn1ncc2ccc(-c3n[nH]c4c3Cc3sc(-c5ccc(C(=O)N6CCOCC6)nc5)cc3-4)cc21 [Compound 23, (5-(3-(1-methyl-1H-indazol-6-yl)-1,4-dihydro-thieno[2′,3′:4,5]cyclopenta [1,2-c]pyrazol-6-yl)pyridin-2-yl)(morpholino) methanone] | < 1 | > 1000 | 30 to 100 | > 10
COc1cc(-c2cc3c(s2)Cc2c(-c4ccc5cnn(C)c5c4)n[nH]c2-3)ccc1CN1CCOCC1 [Compound 24, 4-(2-methoxy-4-(3-(1-methyl-1H-indazol-6-yl)-1,4-dihydrothieno[2′,3′:4,5]cyclopenta[1,2-c]pyrazol-6-yl)benzyl)morpholine] | < 1 | > 1000 | 30 to 100 | > 10
Cn1ncc2ccc(-c3n[nH]c4c3Cc3sc(-c5ccc(CN6CCOCC6)c(F)c5)cc3-4)cc21 [Compound 25, 4-(2-fluoro-4-(3-(1-methyl-1H-indazol-6-yl)-1,4-dihydrothieno[2′,3′:4,5]cyclopenta[1,2-c]pyrazol-6-yl)benzyl)morpholine] | 1 to 10 | > 1000 | 30 to 100 | > 10
Cc1cc(-c2cc3c(s2)Cc2c(-c4ccc5cnn(C)c5c4)n[nH]c2-3)ccc1CN1CCOCC1 [Compound 26, 4-(2-methyl-4-(3-(1-methyl-1H-indazol-6-yl)-1,4-dihydrothieno[2′,3′:4,5]cyclopenta[1,2-c]pyrazol-6-yl)benzyl)morpholine] | 1 to 10 | > 1000 | 100 to 300 | > 10
Cn1ncc2ccc(-c3n[nH]c4c3Cc3sc(-c5ccc(CN6CCOCC6)c(C(F)(F)F)c5)cc3-4)cc21 [Compound 27, 4-(4-(3-(1-methyl-1H-indazol-6-yl)-1,4-dihydrothieno[2′,3′:4,5]cyclopenta[1,2-c]pyrazol-6-yl)-2-(trifluoromethyl)benzyl)morpholine] | 1 to 10 | > 1000 | 1000 to 10000 | > 10
